Test results: PMC11855827, “High-Throughput Screening of Five Compound Libraries for Anthelmintic Activity and Toxicity Leads to the Discovery of Two Flavonoid Compounds” (International Journal of Molecular Sciences, 2025)

Test system: C. elegans
Details: Table S2, C. elegans SS assay, 110 μM, averages of 4 data points

SMILES	Percentage of motility inhibition 0 h [%]	Percentage of motility inhibition 24 h [%]
O=C(N[C@@H](c1ccccc1)[C@@H](O)C(=O)O)c1ccccc1 [N‐Benzoyl‐(2R,3S)‐3‐phenylisoserine]	54	29
CCCCC/C=C\C/C=C\CCCCCCCC(=O)NCc1ccccc1 [N‐Benzyllinoleamide]	0	0
CC/C=C\C/C=C\C/C=C\CCCCCCCC(=O)NCc1ccccc1 [N‐Benzyllinolenamide]	2	0
CCCCCCCCCCCCCCCCCC(=O)NCc1ccccc1 [N‐Benzyloctadecanamide]	35	17
CCCCCCCCCCCCCCCC(=O)NCc1ccccc1 [N‐Benzylpalmitamide]	0	20
COc1ccc(CCNC(=O)/C=C/c2ccc(O)c(O)c2)cc1 [N‐Caffeoyl O‐methyltyramine]	0	0
COc1cc[nH]c(=O)c1C#N [N‐Demethylricinine]	0	7
COc1ccc2c3c1O[C@H]1C[C@@H](O)C=C[C@@]31CCNC2 [N‐Desmethyl Galanthamine]	0	0
COc1cc(/C=C/C(=O)NCC(O)c2ccc(O)cc2)ccc1O (stereo not drawn) [N‐Feruloyloctopamine]	14	0
COc1cc(/C=C/C(=O)NCCc2c[nH]c3ccc(O)cc23)ccc1O [N‐Feruloylserotonin]	11	18
O=CN1C[C@@H]2C[C@H](C1)c1cccc(=O)n1C2 [N‐Formylcytisine]	0	0
CN1C[C@@H]2C[C@H](C1)c1cccc(=O)n1C2 [N‐Methylcytisine]	0	0
Cn1c(=O)c2c(c3ccccc31)OC(C)(C)C=C2 [N‐Methylflindersine]	0	1
CN1CC(=O)NC1=O [N‐Methylhydantoin]	13	16
COc1cc2c3c(c1OC)-c1ccccc1C[C@H]3[N+](C)(C)CC2 [N‐Methylnuciferine]	0	0
COc1cc2c3c(c1OC)-c1ccccc1C[C@H]3NCC2 [N‐Nornuciferine]	13	0
COc1cc(/C=C/C(=O)NCCc2ccc(O)cc2)ccc1O [N‐trans‐Feruloyltyramine]	5	16
O=C(/C=C/c1ccc(O)c(O)c1)c1ccc(O)c(O)c1O [Okanin]	9	31
CC1(C)CC[C@]2(C(=O)O[C@@H]3O[C@H](CO)[C@@H](O)[C@H](O)[C@H]3O)CC[C@]3(C)C(=CC[C@@H]4[C@@]5(C)CC[C@H](O)C(C)(C)[C@@H]5CC[C@]43C)[C@@H]2C1 [Oleanolic acid 28-O-β-D-glucopyranoside]	33	34
COC(=O)C1=COC(O[C@@H]2O[C@H](CO)[C@@H](O)[C@H](O)[C@H]2O)/C(=C/C(=O)O)C1CC(=O)OCCc1ccc(O)c(O)c1 (stereo partly drawn) [Oleuropeinic acid]	0	8
O=C([O-])c1cc(/N=N/c2ccc(O)c(C(=O)[O-])c2)ccc1O.[Na+].[Na+] [Olsalazine (Disodium)]	6	12
